According to ChEMBL document CHEMBL5465560, “Selectivity Literature for EUbOPEN Chemogenomic Library” (2024):

Experiments:
[1] = target: T1, NUAK family SNF1-like kinase 1 (Homo sapiens) (UniProt O60285); details: at 10 µM
T1 sequence (whole entry): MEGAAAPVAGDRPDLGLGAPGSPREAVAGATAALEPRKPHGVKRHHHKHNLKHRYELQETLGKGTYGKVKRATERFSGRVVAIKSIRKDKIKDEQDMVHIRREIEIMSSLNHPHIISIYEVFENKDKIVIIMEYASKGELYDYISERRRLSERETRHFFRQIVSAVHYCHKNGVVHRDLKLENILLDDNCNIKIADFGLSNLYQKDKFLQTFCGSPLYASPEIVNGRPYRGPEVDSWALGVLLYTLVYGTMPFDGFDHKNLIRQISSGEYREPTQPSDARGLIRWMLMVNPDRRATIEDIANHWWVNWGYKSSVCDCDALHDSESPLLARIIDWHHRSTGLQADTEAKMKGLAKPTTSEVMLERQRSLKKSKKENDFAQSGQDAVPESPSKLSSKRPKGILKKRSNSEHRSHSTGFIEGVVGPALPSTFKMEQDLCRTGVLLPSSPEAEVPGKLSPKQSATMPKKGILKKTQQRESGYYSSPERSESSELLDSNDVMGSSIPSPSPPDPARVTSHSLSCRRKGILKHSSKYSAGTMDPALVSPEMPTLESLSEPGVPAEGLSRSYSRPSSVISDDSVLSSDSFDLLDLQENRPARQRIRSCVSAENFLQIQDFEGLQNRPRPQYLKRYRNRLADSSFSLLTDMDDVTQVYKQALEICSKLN

[2] = target: T2, Eukaryotic elongation factor 2 kinase (Homo sapiens) (UniProt O00418); assay: Selectivity interaction (Kinase panel (Z-LYTE Assay)) EUB0001632a EEF2K; details: at 10 µM
T2 sequence (whole entry): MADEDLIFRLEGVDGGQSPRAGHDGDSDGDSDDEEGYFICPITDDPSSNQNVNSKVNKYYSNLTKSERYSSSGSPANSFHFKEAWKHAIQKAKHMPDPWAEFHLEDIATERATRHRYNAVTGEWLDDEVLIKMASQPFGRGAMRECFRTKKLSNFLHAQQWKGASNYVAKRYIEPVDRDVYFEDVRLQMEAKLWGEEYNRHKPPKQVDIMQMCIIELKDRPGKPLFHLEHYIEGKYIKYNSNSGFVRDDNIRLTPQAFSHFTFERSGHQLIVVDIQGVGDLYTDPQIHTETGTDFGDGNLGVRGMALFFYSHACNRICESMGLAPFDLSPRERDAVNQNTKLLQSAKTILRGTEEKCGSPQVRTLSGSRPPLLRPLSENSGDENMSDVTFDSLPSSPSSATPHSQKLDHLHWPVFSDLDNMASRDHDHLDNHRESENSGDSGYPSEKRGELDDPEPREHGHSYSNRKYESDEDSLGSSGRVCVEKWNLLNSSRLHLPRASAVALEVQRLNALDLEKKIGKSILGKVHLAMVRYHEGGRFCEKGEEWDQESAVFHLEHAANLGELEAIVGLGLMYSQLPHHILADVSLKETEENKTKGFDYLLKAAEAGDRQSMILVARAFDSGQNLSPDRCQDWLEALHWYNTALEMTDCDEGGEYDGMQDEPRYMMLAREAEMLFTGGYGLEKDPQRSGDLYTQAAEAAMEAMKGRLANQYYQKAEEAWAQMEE

[3] = target: Tyrosine-protein kinase Fyn (Homo sapiens) (UniProt P06241); assay: Selectivity interaction (Kinase panel (Invitrogen)) EUB0000639a FYN; details: at 200 nM
[4] = target: T3, Serine/threonine-protein kinase D2 (Homo sapiens) (UniProt Q9BZL6); assay: Selectivity interaction (ActivX KiNativ screen (kinase selectivity in THP-1 cell lysates)) EUB0000639a PRKD2; assay type: subcellular; details: lysate, at 0.04 µM
T3 sequence (whole entry): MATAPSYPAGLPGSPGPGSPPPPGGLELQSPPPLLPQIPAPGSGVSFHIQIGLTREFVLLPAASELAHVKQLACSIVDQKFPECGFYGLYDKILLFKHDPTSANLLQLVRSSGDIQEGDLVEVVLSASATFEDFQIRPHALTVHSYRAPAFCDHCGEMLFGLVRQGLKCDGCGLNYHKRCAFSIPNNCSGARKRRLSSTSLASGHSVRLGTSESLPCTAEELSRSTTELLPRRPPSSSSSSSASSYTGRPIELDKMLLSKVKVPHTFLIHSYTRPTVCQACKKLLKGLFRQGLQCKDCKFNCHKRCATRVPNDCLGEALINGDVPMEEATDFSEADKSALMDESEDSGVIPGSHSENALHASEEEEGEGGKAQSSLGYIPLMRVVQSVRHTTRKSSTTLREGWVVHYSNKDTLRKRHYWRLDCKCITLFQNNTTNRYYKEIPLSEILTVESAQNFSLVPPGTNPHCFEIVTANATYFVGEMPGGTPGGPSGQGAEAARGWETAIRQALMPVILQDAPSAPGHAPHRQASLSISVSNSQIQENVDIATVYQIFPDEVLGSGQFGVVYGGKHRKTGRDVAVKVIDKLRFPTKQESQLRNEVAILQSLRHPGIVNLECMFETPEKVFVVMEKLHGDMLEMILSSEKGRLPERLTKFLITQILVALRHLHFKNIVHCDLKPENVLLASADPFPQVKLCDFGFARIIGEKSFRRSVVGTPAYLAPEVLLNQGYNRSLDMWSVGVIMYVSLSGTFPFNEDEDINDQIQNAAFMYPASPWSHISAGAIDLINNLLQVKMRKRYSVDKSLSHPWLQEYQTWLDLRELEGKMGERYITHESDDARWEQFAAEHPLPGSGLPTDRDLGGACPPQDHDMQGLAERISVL

[5] = target: Protein kinase C alpha type (Homo sapiens, UniProt P17252); assay: Selectivity interaction (Kinase panel (Invitrogen)) EUB0000639a PRKCA; details: at 200 nM
[6] = target: T4, Phosphorylase b kinase gamma catalytic chain, liver/testis isoform (Homo sapiens) (UniProt P15735); assay: Selectivity interaction (KinomeScan (DiscoverX)) EUB0001619a PHKG2; details: at 1 µM
T4 sequence (whole entry): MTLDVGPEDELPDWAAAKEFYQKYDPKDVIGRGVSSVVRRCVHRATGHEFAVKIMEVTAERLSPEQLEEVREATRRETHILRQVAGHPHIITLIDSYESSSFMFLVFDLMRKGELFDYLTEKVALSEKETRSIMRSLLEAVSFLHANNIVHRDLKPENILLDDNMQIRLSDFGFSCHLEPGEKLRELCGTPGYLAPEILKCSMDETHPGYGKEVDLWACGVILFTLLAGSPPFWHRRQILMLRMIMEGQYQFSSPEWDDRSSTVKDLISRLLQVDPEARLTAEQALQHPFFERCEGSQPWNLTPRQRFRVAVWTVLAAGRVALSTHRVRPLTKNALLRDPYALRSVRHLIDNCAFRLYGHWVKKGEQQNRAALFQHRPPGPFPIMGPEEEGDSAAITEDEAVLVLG

[7] = target: Wee1-like protein kinase 2 (Homo sapiens) (UniProt P0C1S8); assay: Selectivity interaction (KinomeScan (DiscoverX)) EUB0001619a WEE2; details: at 1 µM
Sequence of Wee1-like protein kinase 2 (Homo sapiens) (P0C1S8 whole entry, looked up): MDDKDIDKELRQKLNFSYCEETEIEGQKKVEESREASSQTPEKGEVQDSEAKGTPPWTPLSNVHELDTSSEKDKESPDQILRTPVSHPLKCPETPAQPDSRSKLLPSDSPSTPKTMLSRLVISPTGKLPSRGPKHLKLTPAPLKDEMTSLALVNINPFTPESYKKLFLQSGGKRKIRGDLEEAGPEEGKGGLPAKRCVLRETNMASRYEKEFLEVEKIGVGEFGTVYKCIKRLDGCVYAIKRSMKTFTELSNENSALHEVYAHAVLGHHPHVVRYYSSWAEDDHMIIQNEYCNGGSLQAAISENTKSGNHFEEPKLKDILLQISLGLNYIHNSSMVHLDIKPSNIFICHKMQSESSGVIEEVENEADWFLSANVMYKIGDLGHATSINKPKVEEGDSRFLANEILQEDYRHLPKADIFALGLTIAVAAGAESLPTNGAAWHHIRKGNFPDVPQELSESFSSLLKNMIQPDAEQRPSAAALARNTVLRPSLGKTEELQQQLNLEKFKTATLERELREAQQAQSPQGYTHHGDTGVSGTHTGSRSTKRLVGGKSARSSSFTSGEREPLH

Sequence of Tyrosine-protein kinase Fyn (Homo sapiens) (P06241 2-537 limits assumed): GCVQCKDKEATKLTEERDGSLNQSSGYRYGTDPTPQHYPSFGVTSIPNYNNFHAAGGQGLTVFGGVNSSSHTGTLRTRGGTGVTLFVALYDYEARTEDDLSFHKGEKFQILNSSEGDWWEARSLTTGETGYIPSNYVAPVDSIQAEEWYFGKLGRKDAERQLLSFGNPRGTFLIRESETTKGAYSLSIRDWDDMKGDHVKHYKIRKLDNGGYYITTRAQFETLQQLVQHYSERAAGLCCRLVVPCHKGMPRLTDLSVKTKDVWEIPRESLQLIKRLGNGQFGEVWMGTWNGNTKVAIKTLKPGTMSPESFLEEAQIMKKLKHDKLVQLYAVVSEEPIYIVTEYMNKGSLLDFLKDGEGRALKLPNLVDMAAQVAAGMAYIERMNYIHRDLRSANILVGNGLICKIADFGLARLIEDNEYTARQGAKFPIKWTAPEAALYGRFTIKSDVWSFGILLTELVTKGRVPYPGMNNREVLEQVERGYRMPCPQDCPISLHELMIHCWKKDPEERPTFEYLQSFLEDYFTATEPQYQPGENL

**Q.** With `Cc1cc([C@@H](C)Nc2ccccc2C(=O)O)c2nc(N3CCOCC3)cc(=O)n2c1` [AZD-6482] as the compound, how does the % of control [1] read?
**A.** Its % of control is 100%.

**Q.** Which % of control [2] does the source give for `Cn1cc(-n2cnc3c(NCc4nc5cc(Cl)c(Cl)cc5[nH]4)nc(N4CCOCC4)nc32)cn1` here?
**A.** Its % of control is 1.73%.

**Q.** Which % of inhibition [3] does the source give for `CC[C@@H]1[C@H](F)C(=O)N[C@@H]1COc1nccc2cc(C(N)=O)c(OC)cc12` [ZIMLOVISERTIB] here?
**A.** The % of inhibition was 16.4%.

**Q.** And the % of inhibition [4]?
**A.** The % of inhibition was -3.5%.

**Q.** And the % of inhibition [5]?
**A.** The % of inhibition was 6.64%.

**Q.** With `N#Cc1cccc(-c2c[nH]c3ncnc(N4CCOCC4)c23)c1` as the compound, how does the % of control [6] read?
**A.** Its % of control is 40%.

**Q.** What about the % of control [7] of the same compound?
**A.** Its % of control is 96%.
